Target: T1, RAF-1 (Homo sapiens, UniProt P04049)
T1 construct: made in house; host or cells: Sf9 (Spodoptera frugiperda) cells co-infected with RAS and RAF recombinant baculoviruses
Test: RAF-1 ELISA phosphorylation assay (RAF-catalyzed phosphorylation of MEK and MAPK)
Assay type: biochemical
Conditions: RAF-1 phosphorylation assay, lysates from RAS/RAF infected Sf9 cells, substrates T-MEK and His-MAPK
From the text: The following assay reports the amount of RAF-catalyzed phosphorylation of its target protein MEK as well as MEK's target MAPK. The RAF gene sequence is described in Bonner et al., 1985, Molec. Cell. Biol. 5: 1400-1407, and is readily accessible in multiple gene sequence data banks. Construction of the nucleic acid vector and cell lines utilized for this portion of the invention are fully described in Morrison et al., 1988, Proc. Natl. Acad. Sci. USA 85: 8855-8859.
• 1. Sf9 (Spodoptera frugiperda) cells; GIBCO-BRL, Gaithersburg, Md. • 2. RIPA buffer: 20 mM Tris/HCl pH 7.4, 137 mM NaCl, 10% glycerol, 1 mM PMSF, 5 mg/L Aprotenin, 0.5% Triton X-100; • 3. Thioredoxin-MEK fusion protein (T-MEK): T-MEK expression and purification by affinity chromatography were performed according to the manufacturer's procedures. Catalog#K 350-01 and R 350-40, Invitrogen Corp., San Diego, Calif. • 4. His-MAPK (ERK 2); His-tagged MAPK was expressed in XL1 Blue cells transformed with pUC18 vector encoding His-MAPK. His-MAPK was purified by Ni-affinity chromatography. Cat#27-4949-01, Pharmacia, Alameda, Calif., as described herein. • 5. Sheep anti mouse IgG: Jackson laboratories, West Grove, Pa. Catalog, #515-006-008, Lot#28563 • 6. RAF-1 protein kinase specific antibody: URP2653 from UBI. • 7. Coating buffer: PBS; phosphate buffered saline, GIBCO-BRL, Gaithersburg, Md. • 8. Wash buffer: TBST-50 mM Tris/HCL pH 7.2, 150 mM NaCl, 0.1% Triton X-100 • 9. Block buffer: TBST, 0.1% ethanolamine pH 7.4 • 10. DMSO, Sigma, St. Louis, Mo. • 11. Kinase buffer (KB): 20 mM Hepes/HC1 pH 7.2, 150 mM NaCl, 0.1% Triton X-100, 1 mM PMSF, 5 mg/L Aprotenin, 75 μM sodium ortho vanadate, 0.5 MM DTT and 10 mM MgCl2. • 12. ATP mix: 100 mM MgCl2, 300 μM ATP, 10 μCi γ-^33P ATP (Dupont-NEN)/mL. • 13 Stop solution: 1% phosphoric acid; Fisher, Pittsburgh, Pa. • 14. Wallac Cellulose Phosphate Filter mats; Wallac, Turku, Finnland. • 15. Filter wash solution: 1% phosphoric acid, Fisher, Pittsburgh, Pa. • 16. Tomtec plate harvester, Wallac, Turku, Finnland. • 17. Wallac beta plate reader #1205, Wallac, Turku, Finnland. • 18. NUNC 96-well V bottom polypropylene plates for compounds Applied Scientific Catalog #AS-72092. Procedure
All of the following steps were conducted at room temperature unless specifically indicated. • 1. ELISA plate coating: ELISA wells are coated with 100 μL of Sheep anti mouse affinity purified antiserum (1 μg/100 μL coating buffer) over night at 4° C. ELISA plates can be used for two weeks when stored at 4° C. • 2. Invert the plate and remove liquid. Add 100 μL of blocking solution and incubate for 30 min. • 3. Remove blocking solution and wash four times with wash buffer. Pat the plate on a paper towel to remove excess liquid. • 4. Add 1 μg of antibody specific for RAF-1 to each well and incubate for 1 hour. Wash as described in step 3. • 5. Thaw lysates from RAS/RAF infected Sf9 cells and dilute with TBST to 10 μg/100 μL. Add 10 μg of diluted lysate to the wells and incubate for 1 hour. Shake the plate during incubation. Negative controls receive no lysate. Lysates from RAS/RAF infected Sf9 insect cells are prepared after cells are infected with recombinant baculoviruses at a MOI of 5 for each virus, and harvested 48 hours later. The cells are washed once with PBS and lysed in RIPA buffer. Insoluble material is removed by centrifugation (5 min at 10,000×g). Aliquots of lysates are frozen in dry ice/ethanol and stored at −80° C. until use. • 6. Remove non-bound material and wash as outlined above (step 3). • 7. Add 2 μg of T-MEK and 2 μg of His-MAEPK per well and adjust the volume to 40 μL with kinase buffer. Methods for purifying T-MEK and MAPK from cell extracts are provided herein by example. • 8. Predilute compounds (stock solution 10 mg/mL DMSO) or extracts 20 fold in TBST plus 1% DMSO. Add 5 μL of the prediluted compounds/extracts to the wells described in step 6. Incubate for 20 min. Controls receive no drug. • 9. […]

T1 sequence (P04049 whole entry): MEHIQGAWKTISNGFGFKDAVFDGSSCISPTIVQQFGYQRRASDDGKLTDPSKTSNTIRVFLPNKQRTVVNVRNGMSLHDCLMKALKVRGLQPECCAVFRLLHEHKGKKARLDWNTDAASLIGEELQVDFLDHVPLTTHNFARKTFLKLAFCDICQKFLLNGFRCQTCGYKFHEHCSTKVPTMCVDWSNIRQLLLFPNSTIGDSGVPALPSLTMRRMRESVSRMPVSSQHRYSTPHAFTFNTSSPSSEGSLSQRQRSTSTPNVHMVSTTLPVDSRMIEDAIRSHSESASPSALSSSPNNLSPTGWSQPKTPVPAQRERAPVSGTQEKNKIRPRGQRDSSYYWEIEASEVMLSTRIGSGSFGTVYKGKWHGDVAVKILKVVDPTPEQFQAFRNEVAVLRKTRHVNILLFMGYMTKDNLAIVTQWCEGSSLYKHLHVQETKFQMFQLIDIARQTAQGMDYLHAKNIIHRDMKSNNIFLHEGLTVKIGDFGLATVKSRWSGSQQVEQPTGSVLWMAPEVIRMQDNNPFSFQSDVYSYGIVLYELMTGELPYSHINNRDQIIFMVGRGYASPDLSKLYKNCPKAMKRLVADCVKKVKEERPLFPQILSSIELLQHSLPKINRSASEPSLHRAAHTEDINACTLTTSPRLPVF

Row | Structure (SMILES) | IC50 [µM]
1 | Nc1nc(N)c2c(Oc3ccccc3)cccc2n1 [Compound A-1, 2,4-Diamino-5-phenoxyquinazoline] | 0.3
2 | Nc1nc(N)c2c(Oc3ccc(F)cc3)cccc2n1 [Compound A-7, 2,4-Diamino-5-(4-fluorophenoxy)quinazoline] | 5.8
3 | COc1ccccc1Oc1cccc2nc(N)nc(N)c12 [Compound A-22, 2,4-Diamino-5-(2-methoxyphenoxy)quinazoline] | 20
4 | COc1cccc(Oc2cccc3nc(N)nc(N)c23)c1 [Compound A-23, 2,4-Diamino-5-(3-methoxyphenoxy)quinazoline] | 6.4
5 | Nc1ncnc2cccc(Oc3ccc(OCc4ccccc4)cc3)c12 [Compound A-28, 4-Amino-5-(4-benzyloxyphenoxy)quinazoline] | 0.3

The next lines start with the values.

Row | IC50 [µM] | Structure (SMILES)
6 | 0.8 | COc1ccc(Oc2cccc3nc(N)nc(N)c23)cc1 [Compound A-6, 2,4-Diamino-5-(4-methoxyphenoxy)quinazoline]
7 | > 100 | CC(C)(C)c1ccc(Oc2cccc3nc(N)nc(N)c23)cc1 [Compound A-8, 2,4-Diamino-5-(4-tert-butylphenoxy)quinazoline]
8 | 4.5 | Cc1ccc(Oc2cccc3nc(N)nc(N)c23)cc1 [Compound A-9, 2,4-Diamino-5-(4-methylphenoxy)quinazoline]

Reference: patent US6911446B2, “Methods of modulating serine/threonine protein kinase function with quinazoline-based compounds” (Sugen, Inc., priority 1997, dated 2005)
